The text below walks through data of patent US12121530B2, “Composition and methods for treating articulating joint disorders with nucleoside reverse transcriptase inhibitors” (RHODE ISLAND HOSPITAL, priority 2018, dated 2024).

This assay deals with mouse primary chondrocytes. Description: RT-qPCR gene expression in mouse primary chondrocytes treated with 3TC or FTC at various dosages. The format is cell-based. The procedure:
Rib cages were sterilely isolated from neonatal mice (within 7-day-old) of desired genotypes and rinsed with HBSS for five times. To remove unspecific tissues, rib cages were digested in Collagenase D (3 μg/mL, Roche, Cat. 11088882001, Mannheim, Germany) for 2-4 hrs at 37° C. and rinsed with HBSS (Gibco®, Grand Island, N.Y. 14072 USA) for five times to remove detached unspecific tissues. To detach chondrocytes from rib cages, the samples underwent secondary digestion in Collagenase D (3 μg/mL) for at least 4 hrs at 37° C. with constant agitation (200 rpm). Detached chondrocytes were pelleted to remove excessive Collagenase D and resuspended in complete medium of DMEM (Gibco®, Grand Island, N.Y. 14072 USA) which contains 10% FBS, 100 U/mL penicillin and 100 μg/mL streptomycin (Gibco®, Grand Island, N.Y. 14072 USA). Growth plate PCs were grown at 37° C. in an atmosphere of 5% CO2. The media was changed on the following day to remove remaining Collagenase D and every 3 days thereafter. Similarly, articular cartilages were sterilely isolated under dissection microscope from neonatal mice (within 7-day-old) of desired genotypes and rinsed with HBSS for five times. In brief, the skins of hindlimbs were removed and transections on Ilia and muscles around hip joints were made to detach hindlimbs from torsi, then transferred to a petri dish. Under a dissection microscope placed in a cell culture hood, soft tissues were cleared while knee and hip joints were exposed. Femur heads could be easily peeled off whilst a fine cut of epiphyses based on vascularization were made to isolate articular cartilage from secondary ossification center. Beyond that, isolated tissues were minced into finer fragments and then put together before undergoing HBSS rinse and subsequent Collagenase D digestion. To remove unspecific tissues, articular cartilages were minced and digested in Collagenase D (3 μg/mL) for 2 hrs at 37° C. and rinsed with HBSS for five times to remove detached unspecific tissues. To detach chondrocytes from cartilage matrix, the samples underwent secondary digestion in Collagenase D (3 μg/mL) for at least 4 hrs at 37° C. with constant agitation (200 rpm). Detached chondrocytes were pelleted to remove excessive Collagenase D and resuspended in complete medium of DMEM which contains 10% FBS, 100 U/mL penicillin and 100 μg/mL streptomycin. Articular PCs were grown at 37° C. in an atmosphere of 5% CO2. The media was changed on the following day to remove remaining Collagenase D and every 3 days thereafter. Both miRNA and mRNA were extracted using miRNeasy Mini Kit (Qiagen®, Germantown, Md., USA) and reversely transcribed using […] (Qiagen®, Germantown, Md., USA) according to manufacturer's instruction. qPCR was performed using SYBR Green PCR master mix (Qiagen®, Germantown, Md., USA) on a Bio-Rad CFX96 real-time PCR detection system (Bio-Rad®, Hercules, Calif., USA). Amplification conditions are as follows: 95° C. for 10 min, 40 cycles of 95° C. for 10'', 55° C. for 30'', and 72° C. for 30''. 18S ribosomal or GAPDH RNA was used as an internal control gene to normalize the mRNAs level. The ubiquitously expressed snRNA U6 was used as an endogenous control for miRNAs level. […] The primers for miR-365 were purchased from Qiagen. Fold changes of mRNA and miRNAs were calculated by the 2^^(ΔΔCt) method and normalized to 18S/GAPDH or U6 snRNA, respectively.

Setting [1] is: mouse chondrocytes, at lower than 100 μM concentrations.
Where [2] appears, read: mouse primary chondrocytes, RNA level, various dosages.

“Also recorded” adds a separate entry of the source.

With `Nc1nc(=O)n([C@@H]2CS[C@H](CO)O2)cc1F` [FTC, 2′,3′-dideoxy-5-fluoro-3′-thiacytidine], under setting [1], the Acan levels entry is listed as “increased” and the Col2a1 levels result is “increased”. Under setting [2], the Acan expression result is “promotes”, the Adamts5 expression result is “induces”, the “Col2 (Col2a1) expression” value is reported as “promotes” and the “Col10 (Col10a1) expression” value was “induces”. In addition, under setting [2], the “Ifn-α (Inf-α) expression” value was “suppresses; also recorded: significantly inhibited”, the Line-1 expression entry is reported as “suppresses; also recorded: significantly inhibited”, the Mmp3 expression result is reported as “induces” and the Mmp13 expression result was “induces”. Besides, under setting [2], the Nlrp3 expression entry is recorded as “suppresses; also recorded: significantly inhibited” and the P2rx7 expression result was “suppresses; also recorded: significantly inhibited”.

Turning to `Nc1ccn([C@@H]2CS[C@H](CO)O2)c(=O)n1` [3TC, lamivudine], under setting [2], the Acan expression entry is recorded as “stimulated”, the Adamts5 expression entry was “suppresses; also recorded: inhibited”, the “Col2 (Col2a1) expression” value was “promotes; also recorded: stimulated” and the “Col10 (Col10a1) expression” value is “suppresses; also recorded: inhibited”. Moreover, under setting [2], the “Ifn-α (Inf-α) expression” value is listed as “suppresses”, the Line-1 expression result is recorded as “suppresses; also recorded: inhibited” and the Mmp13 expression result is “inhibited”.
